Assay [1] addresses T1, human Serotonin 5-HT1D receptor (Homo sapiens, UniProt P28221).
T1 construct: purchased Euroscreen
The experiment in a line: GTPγS functional assay. As to conditions: read-out: Functional activity (agonist). The class given is biochemical. The method, then:
Functional profiling of agonist and antagonist activities of 8′-OH DHE on human Adrenergic α1D, Dopamine D2L, and Serotonin 5-HT1B, 5-HT1D, 5-HT1F, 5-HT3, 5-HT4e and 5-HT5A receptors (compared against the parent (DHE) molecule) was carried out as follows.
The SPA 35S-GTPγS tests were conducted with Euroscreen membrane preparations […]. The HTRF assays were conducted with recombinant cell lines. The receptor accession numbers, cellular background and reference compounds are as reported below in Table 10.
(3) 8′-OH DHE was tested for agonist and antagonist activity at the human Serotonin 5-HT1B and Serotonin 5-HT1D receptors using GTPγS assay (in triplicate) at the following nanomolar concentrations: […]
The assay procedure was carried out as follows. […] The plates were then centrifuged for 10 minutes at 2,000 rpm and counted for 1 min/well with a Perkin Elmer TopCount reader.
Agonist activity of the test compounds was expressed as a percentage of the activity of the reference agonist at its EC100 concentration. Antagonist activity of the test compounds was expressed as a percentage of the inhibition of the reference agonist activity at its EC80 concentration. Dose-response data from the test compounds were analyzed with XLfit (IDBS) software using nonlinear regression applied to a sigmoidal dose-response model and the following equation: […]

The target in another assay is T2, Adenosine A2a (Homo sapiens, UniProt P29274).
T2 construct: expressed in transfected cells; host or cells: HEK293
The experiment in a line: cAMP HTRF assay. The class given is cell-based. The method, then: Additional receptor agonist/agonist activity assessments were performed using the 8′-OH DHE test compound. Table 12 contains a summary of the cell lines (CHO-K1/HEK293 transfected with relevant human receptor) and the assays performed to detect any agonist or antagonist activity.
Cells expressing the human recombinant receptor of interest were grown in media without antibiotic and detached by gentle flushing with PBS-EDTA (5 mM EDTA), recovered by centrifugation and resuspended in assay buffer (KRH: 5 mM KCl, 1.25 mM MgSO4, 124 mM NaCl, 25 mM HEPES, 13.3 mM glucose, 1.25 mM KH2PO4, 1.45 mM CaCl2, 0.5 g/L BSA). Dose response curves were performed in parallel with the reference compounds. For agonist tests (96-well plates), 12 μL of cells was mixed with 12 μL of the test 8′-OH DHE compound at increasing concentrations and then incubated for 30 minutes at RT. Lysis buffer was added and after one hour incubation, cAMP concentrations were determined according to the manufacturer specification with the HTRF kit. For antagonist tests (96-well plates), 12 μL of cells was mixed with 6 μL of the test 8′-OH DHE compound at increasing concentrations and then incubated for 10 minutes. […] Lysis buffer was added and after 1 hour incubation, cAMP concentrations were determined according to the manufacturer specification, with the HTRF kit. […]
A general note: Time-resolved FRET reads energy transfer from a long-lived donor to a nearby acceptor.

T1 sequence (P28221 whole entry): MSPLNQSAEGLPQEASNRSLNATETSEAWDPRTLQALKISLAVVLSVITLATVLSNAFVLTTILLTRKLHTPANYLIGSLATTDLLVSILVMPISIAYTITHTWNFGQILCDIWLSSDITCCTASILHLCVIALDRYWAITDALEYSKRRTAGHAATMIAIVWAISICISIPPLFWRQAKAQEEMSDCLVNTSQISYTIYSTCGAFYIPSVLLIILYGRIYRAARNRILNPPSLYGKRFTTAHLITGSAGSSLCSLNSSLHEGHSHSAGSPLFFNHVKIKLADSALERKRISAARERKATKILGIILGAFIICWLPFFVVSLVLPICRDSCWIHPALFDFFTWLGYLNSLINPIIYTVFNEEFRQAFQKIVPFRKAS
T2 sequence (P29274 whole entry): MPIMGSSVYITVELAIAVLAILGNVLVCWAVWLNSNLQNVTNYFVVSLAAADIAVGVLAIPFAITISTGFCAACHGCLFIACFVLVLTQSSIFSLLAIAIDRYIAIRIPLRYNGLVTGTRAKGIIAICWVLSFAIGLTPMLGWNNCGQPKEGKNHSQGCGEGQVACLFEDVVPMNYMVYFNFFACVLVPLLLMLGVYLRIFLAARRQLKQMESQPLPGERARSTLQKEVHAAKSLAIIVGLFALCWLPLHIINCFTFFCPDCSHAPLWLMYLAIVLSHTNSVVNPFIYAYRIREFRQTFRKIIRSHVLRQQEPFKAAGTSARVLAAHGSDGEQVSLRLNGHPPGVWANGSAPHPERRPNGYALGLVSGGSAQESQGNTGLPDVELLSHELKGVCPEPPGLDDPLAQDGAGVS

As for `CN1C[C@H](C(=O)N[C@]2(C)O[C@@]3(O)[C@@H]4CCC(O)N4C(=O)[C@H](Cc4ccccc4)N3C2=O)C[C@@H]2c3cccc4[nH]cc(c34)C[C@H]21` (some centres unmarked) [8′-OH DHE, 8′-Hydroxy-Dihydroergotamine], the EC50 in assay [1] was 0.49 nM. Also, the “Activity (Agonism: EC50; Antagonism: IC50)” value at Adenosine A2a is “Inactive”.

The values above are taken from patent US20150306096A1, “8'-HYDROXY-DIHYDROERGOTAMINE COMPOUNDS AND COMPOSITIONS” (MAP Pharmaceuticals, Inc., priority 2012, published 2015).
